Experimental findings from patent US20090208493A1, “Compounds and methods for the selective inhibition of ABCB1, ABCC1 and ABCG2 transporters and the treatment of cancers, especially drug resistant cancers and high throughput flow cytometry assay to detect selective inhibitors” (STC. UNM, priority 2007, published 2009) are described below.

Counter-ions that a name gives are not always drawn. Like-named read-outs stand apart in the source and are kept apart here.

In data set [1] the test system is DNR-resistant Jurkat cells. Briefly: Chemreversal50: sensitisation of DNR-resistant Jurkat cells to 100 nM DNR. It is filed as cell-based, human. As to conditions: read-out: Chemorev50 (SD), 50% of reversal of chemotherapeutic effect determined in in vitro screen. Here is the method: To enable this analysis, a 3-log range of each “hit” compound was added in 2 mL aliquots to a 6 well plate and, over a range of 7 days, total cell number and viability was measured using a hemacytometer and trypan blue staining. Fresh media containing 100 nM DNR was added over the course of the experiment to maintain the cell concentration ≧100,000 cells/mL. […] The differences (if any) between the Chemreversal50 and TD50 gave an approximation of an in vitro “therapeutic index” for each compound.

For data set [2], the target named is T1, ABCB1 (Homo sapiens, UniProt P08183). The experiment in a line: JC-1 efflux HyperCyt flow cytometry assay (ABCB1 reversal). Particulars: for hit in primary screen of Prestwick Chemical Library for ABCB1-mediated JC-1 efflux: final concentration of 5 μM.
The test system of data set [3] is DNR-resistant Jurkat cells. It is filed as cell-based. As to conditions: media alone, 7 days.
The next data set addresses T2, ABCG2 (Homo sapiens, UniProt Q9UNQ0).
T2 construct: ABCG2-expressing IgMXP3 cells; endogenous in cells; host or cells: IgMXP3 cells (resistant subline of Igrov1)
T2 sequence (Q9UNQ0 1-655): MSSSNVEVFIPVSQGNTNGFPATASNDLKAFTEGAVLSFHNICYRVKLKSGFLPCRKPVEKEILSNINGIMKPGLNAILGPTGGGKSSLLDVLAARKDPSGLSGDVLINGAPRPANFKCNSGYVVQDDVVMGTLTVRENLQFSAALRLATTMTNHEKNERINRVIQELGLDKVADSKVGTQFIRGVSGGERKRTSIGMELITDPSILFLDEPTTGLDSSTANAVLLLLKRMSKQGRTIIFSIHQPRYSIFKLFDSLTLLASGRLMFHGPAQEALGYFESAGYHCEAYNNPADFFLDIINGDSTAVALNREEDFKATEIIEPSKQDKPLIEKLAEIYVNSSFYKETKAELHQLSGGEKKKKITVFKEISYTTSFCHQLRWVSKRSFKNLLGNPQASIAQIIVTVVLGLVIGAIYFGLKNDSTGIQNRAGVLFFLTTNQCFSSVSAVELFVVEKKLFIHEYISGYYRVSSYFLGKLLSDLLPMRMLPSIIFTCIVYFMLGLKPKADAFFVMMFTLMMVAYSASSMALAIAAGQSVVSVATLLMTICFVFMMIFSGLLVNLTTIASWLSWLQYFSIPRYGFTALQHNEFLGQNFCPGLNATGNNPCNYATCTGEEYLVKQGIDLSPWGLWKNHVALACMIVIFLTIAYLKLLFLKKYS
The experiment in a line: JC1 duplex high-throughput flow cytometry assay, ABCG2 (IgMXP3 cells). Format: cell-based. As to conditions: 384 well plate. Here is the method: (§1) Jurkat-DNR cells (ABCB1) were labeled with 0.5 ng/ml FarRed DDAO CellTrace SE (Invitrogen) for 15 min at room temperature, washed twice by centrifugation, then combined with unlabeled IgMXP3 cells (ABCG2) in the assay buffer. The label binds covalently to amine groups in cells and is detected at red fluorescence emission wavelengths of 665±10 nm upon excitation at 635 nm. Final in-well concentration of cells was 3×10^6 cell/ml at a 1:1 ratio of the two cell types.

Data set [4] deals with T1, ABCB1. The experiment in a line: JC1 duplex high-throughput flow cytometry assay, ABCB1 (Jurkat-DNR cells). Format: cell-based. The arrangement: endogenous in cells; host or cells: Jurkat cells selected for daunorubicin resistance (Jurkat-DNR). Particulars: 384 well plate. Here is the method: as §1
Another data set has as its system parental Jurkat cells. Briefly: Chemosensitivity of parental (therapy sensitive) Jurkat cells. Format: cell-based. As to conditions: Homo sapiens.
The test system of data set [5] is Jurkat DNR resistant cells. Briefly: Chemosensitivity of DNR-resistant Jurkat cells. It is filed as cell-based, human. Particulars: for IC50: Homo sapiens, Jurkat cells with acquired resistance to DNR.
Data set [6] deals with T1, ABCB1. As to conditions: 5 μM.
Setting [7] is: Homo sapiens, 168 h, DNR-resistant Jurkat cells, fixed 100 nM DNR, 7 days, trypan blue viability.

T1 sequence (P08183 whole entry): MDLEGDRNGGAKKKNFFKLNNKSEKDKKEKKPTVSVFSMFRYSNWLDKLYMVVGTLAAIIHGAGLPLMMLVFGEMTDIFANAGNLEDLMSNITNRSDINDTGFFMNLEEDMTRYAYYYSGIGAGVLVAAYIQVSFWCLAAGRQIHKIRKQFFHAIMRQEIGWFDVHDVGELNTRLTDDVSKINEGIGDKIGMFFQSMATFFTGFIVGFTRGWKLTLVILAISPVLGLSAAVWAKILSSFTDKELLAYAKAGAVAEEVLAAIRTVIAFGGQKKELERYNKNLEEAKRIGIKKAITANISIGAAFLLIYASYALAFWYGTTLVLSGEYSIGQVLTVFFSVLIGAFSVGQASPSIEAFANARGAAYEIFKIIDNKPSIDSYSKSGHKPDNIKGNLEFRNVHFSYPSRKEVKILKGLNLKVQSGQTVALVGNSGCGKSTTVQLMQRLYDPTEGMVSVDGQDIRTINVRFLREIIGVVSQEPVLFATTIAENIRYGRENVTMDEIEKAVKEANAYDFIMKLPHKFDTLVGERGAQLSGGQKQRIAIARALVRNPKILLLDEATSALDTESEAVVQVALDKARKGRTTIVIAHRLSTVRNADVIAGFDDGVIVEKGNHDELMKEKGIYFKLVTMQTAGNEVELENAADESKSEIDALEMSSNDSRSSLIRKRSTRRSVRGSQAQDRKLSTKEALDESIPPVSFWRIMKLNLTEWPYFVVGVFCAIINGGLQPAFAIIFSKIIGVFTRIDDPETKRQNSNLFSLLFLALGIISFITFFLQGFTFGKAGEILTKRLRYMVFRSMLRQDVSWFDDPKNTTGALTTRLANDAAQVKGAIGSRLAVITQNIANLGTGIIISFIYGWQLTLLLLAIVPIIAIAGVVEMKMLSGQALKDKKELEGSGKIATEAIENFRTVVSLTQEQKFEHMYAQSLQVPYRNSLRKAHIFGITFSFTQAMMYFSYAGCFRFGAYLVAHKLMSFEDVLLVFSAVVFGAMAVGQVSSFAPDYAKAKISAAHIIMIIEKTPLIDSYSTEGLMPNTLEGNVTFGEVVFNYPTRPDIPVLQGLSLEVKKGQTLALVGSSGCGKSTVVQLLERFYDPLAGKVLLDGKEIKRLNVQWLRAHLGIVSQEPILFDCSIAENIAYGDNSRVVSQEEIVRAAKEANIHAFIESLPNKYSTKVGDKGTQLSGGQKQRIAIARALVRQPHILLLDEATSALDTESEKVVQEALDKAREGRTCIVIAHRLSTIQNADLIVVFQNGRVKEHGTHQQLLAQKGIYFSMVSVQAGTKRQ

In the case of `CC(C)COCC(CN(Cc1ccccc1)c1ccccc1)N1CCCC1` (stereo not shown) [Bepridil HCL, bepridil], the EC50 in data set [1] (setting [7]) is 3.3 µM. The concentration for half-maximal inhibition (IC50) on ABCB1 [2] was 7.4 ± 0.95 µM. For `Cc1c2ccncc2c(C)c2c1[nH]c1ccccc12` [Ellipticine, ellipticine], the EC50 in data set [1] (Homo sapiens, Jurkat, 168 h) stood at 1.8 µM. In addition, the “TD50 (SD), 50% toxic dose determined in in vitro screen” value in data set [3] came to 3.8 µM; in data set [3] (listed as ellipticine), 2.7 ± 1.56 µM. Moreover, the concentration for half-maximal inhibition (IC50) at ABCB1 [2] is 0.99 ± 0.014 µM.

Turning to `Fc1ccc(C(OCCN2CCN(CCCc3ccccc3)CC2)c2ccc(F)cc2)cc1` [GBR 12909 HCL, GBR 12909], in data set [1] (setting [7]), the EC50 was found to be 2.1 µM. For the same compound, the concentration for half-maximal inhibition (IC50) on ABCB1 [2] worked out at 4.6 ± 0.28 µM. As to `CC[C@H](c1ccc(O)cc1)[C@@H](CC)c1ccc(O)cc1` [Hexestrol, hexestrol], the EC50 in data set [1] (Homo sapiens, Jurkat, 168 h) amounted to 12.8 µM. Further, the IC50 on ABCB1 [2] amounted to 8.3 ± 3.2 µM.

Regarding `CC(=O)N1CCN(c2ccc(OCC3COC(Cn4ccnc4)(c4ccc(Cl)cc4Cl)O3)cc2)CC1` (stereo not shown) [Ketoconazole, ketoconazole], the EC50 in data set [1] (setting [7]) was 3.7 µM. `CC[C@@H](C(=O)[C@@H](C)[C@@H](O)[C@H](C)CCc1ccc(C)c(O)c1C(=O)O)[C@H]1O[C@](CC)([C@H]2CC[C@](O)(CC)[C@H](C)O2)C[C@@H]1C` [Lasalocid]: the “JC1 duplex assay response, ABCG2” value at ABCG2 was “significant assay response for both transporters”. Moreover, on ABCB1 [4], the “JC1 duplex assay response, ABCB1” value is “significant assay response for both transporters”. For the compound `Cc1cccc(C)c1NC(=O)CN1CCN(CCCC(c2ccc(F)cc2)c2ccc(F)cc2)CC1` [Lidoflazine, lidoflazine], in data set [1] (setting [7]), the EC50 stood at 3.1 µM. Also, the half-maximal inhibitory concentration (IC50) at ABCB1 [2] stood at 5.4 ± 0.55 µM.

As to `C[C@@H]1C[C@H]2[C@@H]3CCC4=CC(=O)C=C[C@]4(C)[C@@]3(Cl)[C@@H](O)C[C@]2(C)[C@@]1(OC(=O)c1ccco1)C(=O)CCl` [Mometasone Furoate, mometasone furoate], in data set [1] (DNR-resistant Jurkat cells, fixed 100 nM DNR, 7 days, trypan blue viability), the EC50 worked out at 1.4 ± 0.28 µM. Besides, the “TD50 (SD), 50% toxic dose determined in in vitro screen” value in data set [3] was 30.4 µM; in data set [3] (listed as mometasone) it was 24.8 ± 8.0 µM. Moreover, the IC50 at ABCB1 [2] (read-out: IC50 (SD), 50% inhibition of drug efflux determined in high-throughput screen, JC-1 efflux, DNR-resistant Jurkat cells) was found to be 0.74 ± 0.13 µM.

Consider `COC(=O)C1=C(C)NC(C)=C(C(=O)OCCN(C)Cc2ccccc2)C1c1cccc([N+](=O)[O-])c1` (stereo not shown) [Nicardipine HCL, nicardipine], for which the EC50 in data set [1] (setting [7]) is 2.6 µM. For `C[C@]12C=CC(=O)C=C1CC[C@@H]1[C@@H]2[C@@H](O)C[C@@]2(C)[C@H]1CC[C@]2(O)C(=O)CO` [PRED, prednisolone], the IC50 in the data set with parental Jurkat cells is 0.316 µM. Further, in data set [5], the “increased resistance of DNR-resistant vs parental Jurkat cells” value (from here on “increased resistance of DNR-resistant”) is listed as 3 fold and the IC50 is 1 µM. Regarding `CCCNCC(O)COc1ccccc1C(=O)CCc1ccccc1` (stereo not shown) [Propafenone HCL, propafenone], in data set [1] (setting [7]), the EC50 was 4.9 ± 1.3 µM. With `COC(=O)[C@H]1[C@H]2C[C@@H]3c4[nH]c5cc(OC)ccc5c4CCN3C[C@H]2C[C@@H](OC(=O)/C=C/c2cc(OC)c(OC)c(OC)c2)[C@@H]1OC` [Rescinnamine, rescinnamine], in data set [1] (setting [7]), the EC50 worked out at 1 µM. Besides, on ABCB1 [2], the concentration for half-maximal inhibition (IC50) amounted to 1.53 ± 0.5 µM.

Consider `CC[C@]1(O)C[C@H]2CN(CCc3c([nH]c4ccccc34)[C@@](C(=O)OC)(c3cc4c(cc3OC)N(C=O)[C@H]3[C@@](O)(C(=O)OC)[C@H](OC(C)=O)[C@]5(CC)C=CCN6CC[C@]43[C@@H]65)C2)C1` [VCR, Vincristine], for which, in the data set with parental Jurkat cells, the IC50 was 6.31 µM. In data set [5], the “increased resistance of DNR-resistant” value is reported as “approximately 70 fold” and half-maximal inhibition (IC50) required 316 µM. Turning to `CC[C@H](C)[C@H]1O[C@]2(C=C[C@@H]1C)C[C@@H]1C[C@@H](C/C=C(\C)[C@@H](O[C@H]3C[C@H](OC)[C@@H](O[C@H]4C[C@H](OC)[C@@H](O)[C@H](C)O4)[C@H](C)O3)[C@@H](C)/C=C/C=C3\CO[C@@H]4[C@H](O)C(C)=C[C@@H](C(=O)O1)[C@]34O)O2` [avermectin], at ABCB1 [2], the “hit in primary screen of Prestwick Chemical Library for ABCB1-mediated JC-1 efflux” value (“hit in primary screen” below) was “inhibiting ABCB1-mediated drug efflux”. `Cc1cc(C2CCCCC2)n(O)c(=O)c1.NCCO` [ciclopirox ethanolamine]: the “hit in primary screen” value at ABCB1 [2] was “inhibiting ABCB1-mediated drug efflux”. On to `CC(=O)O[C@H]1C[C@@]2(C)[C@@H](C[C@@H](O)[C@H]3[C@@]4(C)CC[C@@H](O)[C@@H](C)[C@@H]4CC[C@@]32C)/C1=C(\CCC=C(C)C)C(=O)O` [fusidic acid], for which, at ABCB1 [6], the “hit in primary screen” value was “inhibiting ABCB1-mediated drug efflux”. `C=C(C)[C@H]1Cc2c(ccc3c2O[C@@H]2COc4cc(OC)c(OC)cc4[C@@H]2C3=O)O1` [rotenone]: the “hit in primary screen” value on ABCB1 [2] is reported as “inhibiting ABCB1-mediated drug efflux”. `CCOC(=O)Oc1c(OC)cc(C(=O)O[C@@H]2C[C@@H]3CN4CCc5c([nH]c6cc(OC)ccc56)[C@H]4C[C@@H]3[C@H](C(=O)OC)[C@H]2OC)cc1OC` [syrosingopine]: the “hit in primary screen” value on ABCB1 [6] was “inhibiting ABCB1-mediated drug efflux”.

Regarding `COc1c(O[C@@H]2O[C@H](CO)[C@@H](O)[C@H](O)[C@H]2O)cc2c(c1OC)-c1ccc(SC)c(=O)cc1[C@@H](NC(C)=O)CC2` [thiocolchicoside], the “hit in primary screen” value at ABCB1 [2] is on record as “inhibiting ABCB1-mediated drug efflux”. For the compound L-asparaginase, in data set [5], the “increased resistance of DNR-resistant” value is recorded as “no increased resistance”. Consider antimycin, for which the “hit in primary screen” value on ABCB1 [2] is on record as “inhibiting ABCB1-mediated drug efflux”.
